Experiment [1] is described as follows: Active oxygen method (AOM): peroxide value of oils or fats after oxidative stress. The format is physicochemical. The conditions noted are these: soybean oil subjected to oxidative stress; 500 ppm; FIG. 1.
Experiment [2] in a line: Oil stability index (OSI) induction time. The format is physicochemical. The conditions noted are these: soybean oil; 500 ppm; FIG. 1.

Molecules are shown by their SMILES.

As to `CCOc1ccc2c(c1)C(C)=CC(C)(C)N2` [ETX, 6-ethoxy-1,2-dihydro-2,2,4-trimethylquinoline], the peroxide values entry in experiment [1] is reported as “about 11 meq”. In addition, the OSI induction time result in experiment [2] is recorded as “about 6 hr”.
